Data taken from US8962608B2, “Cycloalkylnitrile pyrazole carboxamides as janus kinase inhibitors” (Merck Sharp & Dohme Corp., priority 2011, dated 2015).

molecular target: JAK1 (recombinant purified GST-tagged catalytic domain) (Homo sapiens (Human), UniProt P23458); experiment: biochemical
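Further: biochemical assay with HTRF read-out.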

Chain of JAK1 (recombinant purified GST-tagged catalytic domain) (P23458 875-1153): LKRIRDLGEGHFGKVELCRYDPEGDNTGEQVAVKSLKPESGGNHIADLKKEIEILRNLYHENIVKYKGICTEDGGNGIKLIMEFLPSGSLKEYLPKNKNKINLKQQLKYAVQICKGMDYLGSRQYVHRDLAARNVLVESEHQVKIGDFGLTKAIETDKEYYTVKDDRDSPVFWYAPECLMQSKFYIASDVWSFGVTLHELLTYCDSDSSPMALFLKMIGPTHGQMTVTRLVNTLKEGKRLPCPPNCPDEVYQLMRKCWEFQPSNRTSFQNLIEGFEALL

IC50	Compound
3 nM	C=C[C@]1(O)CC[C@H](n2cc(C(N)=O)c(Nc3ccc(Cl)cc3)n2)[C@@H](C#N)C1 (single isomer, unassigned) [Example 32-5, 3-[(4-chlorophenyl)amino]-1-[(1S,2S,4S or 1R,2R,4R)-2-cyano-4-ethenyl-4-hydroxycyclohexyl]-1H-pyrazole-4-carboxamide]
38 nM	CC1(CNC(=O)[C@@H]2CC[C@@H](n3cc(C(N)=O)c(Nc4ccc(Cl)cc4)n3)[C@H](C#N)C2)COC1 (single isomer, unassigned) [Example 35-29, 3-[(4-chlorophenyl)amino]-1-[(1R,2R,4R or 1S,2S,4S)-2-cyano-4-{[(3-methyloxetan-3-yl)methyl]carbamoyl}cyclohexyl]-1H-pyrazole-4-carboxamide]
3 nM	N#C[C@H]1C[C@@H](NCC(F)(F)F)CC[C@@H]1n1cc(C(N)=O)c(Nc2ccc(Cl)cc2)n1 (single isomer, unassigned) [Example 28-224, 3-[(4-chlorophenyl)amino]-1-{(1S,2S,4S or 1R,2R,4R)-2-cyano-4-[(2,2,2-trifluoroethyl)amino]cyclo-hexyl}-1H-pyrazole-4-carboxamide]
3 nM	C[C@@](O)(c1ccc(Nc2nn([C@H]3CCCC[C@@H]3C#N)cc2C(N)=O)cn1)C(F)(F)F (single isomer, unassigned) [Example 17-35, 1-[(1S,2S or 1R,2R)-2-cyanocyclohexyl]-3-({6-[(1R or 1S)-2,2,2-trifluoro-1-hydroxy-1-methylethyl]pyridin-3-yl}amino)-1H)-pyrazole-4-carboxamide]
0.6 nM	N#C[C@H]1C[C@@H](N2CCC2)CC[C@@H]1n1cc(C(N)=O)c(Nc2ccc(CC(F)(F)F)cc2)n1 (single isomer, unassigned) [Example 28-69, 1-[(1S,2S,4S or 1R,2R,4R)-4-azetidin-1-yl-2-cyanocyclohexyl]-3-{[4-(2,2,2-trifluoroethyl)phenyl]amino}-1H-pyrazole-4-carboxamide]
0.3 nM	CC(C)(C(=O)O)c1ccc(Nc2nn([C@H]3CC[C@@H](N4CCC4)C[C@@H]3C#N)cc2C(N)=O)cc1 (single isomer, unassigned) [Example 28-80, 2-[4-({1-[(1S,2S,4R or 1R,2R,4S)-4-azetidin-1-yl-2-cyanocyclohexyl]-4-carbamoyl-1H-pyrazol-3-yl}amino)phenyl]-2-methylpropanoic acid]
11 nM	CN(CCC(F)(F)F)[C@@H]1CC[C@H](n2cc(C(N)=O)c(Nc3ccc(S(=O)(=O)C(F)(F)F)cc3)n2)[C@@H](C#N)C1 (single isomer, unassigned) [Example 28-170, 1-{(1S,2S,4R or 1R,2R,4S)-2-cyano-4-[methyl(3,3,3-trifluoropropyl)amino]cyclohexyl}-3-({4-[(trifluoromethyl)sulfonyl]phen-yl]amino)-1H-pyrazole-4-carboxamide]
1 nM	N#C[C@H]1C[C@@H](NCC(F)(F)F)CC[C@@H]1n1cc(C(N)=O)c(Nc2ccnc(F)c2)n1 (single isomer, unassigned) [Example 28-111, 1-{(1S,2S,4S or 1R,2R,4R)-2-cyano-4-[(2,2,2-trifluoroethyl)amino]cyclohexyl}-3-[(2-fluoropyridin-4-yl)amino]-1H-pyrazole-4-carboxamide]
3 nM	CN[C@H]1CCC(n2cc(C(N)=O)c(Nc3ccc(S(=O)(=O)C(F)(F)F)cc3)n2)[C@@H](C#N)C1 (mixture of isomers) [Example 27-9, 1-[(1S,2S,4S and 1R,2R,4R)-2-cyano-4-(methylamino)cyclohexyl]-3-({4-[(trifluoromethyl)sulfonyl]phenyl}amino)-1H-pyrazole-4-carboxamide]
5 nM	N#C[C@@H]1C[C@H](C(=O)N2CCC(F)(F)C2)CC[C@H]1n1cc(C(N)=O)c(Nc2ccc(Cl)cc2)n1 (single isomer, unassigned) [Example 35-32, 3-[(4-chlorophenyl)amino]-1-{(1R,2R,4R or 1S,2S,4S)-2-cyano-4-[(3,3-difluoropyrrolidin-1-yl)carbonyl]cyclohexyl}-1H-pyrazole-4-carboxamide]
0.49 nM	N#C[C@H]1CCCCC1n1cc(C(N)=O)c(Nc2ccc(S(=O)(=O)CC(F)(F)F)cc2)n1 (mixture of isomers) [Example 17-12, 1-[(1S,2S and 1R,2R)-2-cyanocyclohexyl]-3-({4-[(2,2,2-trifluoroethyl)sulfonyl]phenyl}amino)-1H-pyrazole-4-carboxamide]
2 nM	N#C[C@H]1CCCC[C@@H]1n1cc(C(N)=O)c(Nc2ccc(C(F)(F)F)cc2)n1 (single isomer, unassigned) [Example 17-105, 1-[(1S,2S or 1R,2R)-2-cyanocyclohexyl]-3-{[4-(trifluoromethyl)phenyl]amino}-1H-pyrazole-4-carboxamide]
2 nM	C[C@@H]1C[C@@H](C)N1[C@H]1CC[C@H](n2cc(C(N)=O)c(Nc3ccc(C(F)(F)F)cc3)n2)[C@@H](C#N)C1 (single isomer, unassigned) [Example 28-9, 1-{(1S,2S,4S or 1R,2R,4R)-2-cyano-4-[(2R,4R or 2S,4S)-2,4-dimethylazetidin-1-yl]cyclohexyl}-3-{[4-(trifluoromethyl)phenyl]amino}-1H-pyrazole-4-carboxamide]
16 nM	COCC(C)(C)N[C@H]1CCC(n2cc(C(N)=O)c(Nc3ccccc3)n2)[C@@H](C#N)C1 (single isomer, unassigned) [Example 28-231, 1-{(1S,2S,4S or 1R,2R,4R)-2-cyano-4-[(2-methoxy-1,1-dimethylethyl)amino]cyclo-hexyl}-3-(phenylamino)-1H-pyrazole-4-carboxamide]
2 nM	CN(C)[C@H]1CC[C@H](n2cc(C(N)=O)c(Nc3ccc(F)cc3)n2)[C@@H](C#N)C1 (single isomer, unassigned) [Example 28-94, 1-[(1S,2S,4S or 1R,2R,4S)-2-cyano-4-(dimethylamino)cyclohexyl]-3-[(4-fluorophenyl)amino]-1H-pyrazole-4-carboxamide]
0.8 nM	COCC(C)(C)N[C@H]1CCC(n2cc(C(N)=O)c(Nc3ccc(Cl)cc3)n2)[C@@H](C#N)C1 (single isomer, unassigned) [Example 28-222, 3-[(4-chlorophenyl)amino]-1-{(1S,2S,4S or 1R,2R,4R)-2-cyano-4-[(2-methoxy-1,1-dimethylethyl)amino]cyclo-hexyl}-1H-pyrazole-4-carboxamide]
0.85 nM	C=C[C@@]1(O)CC[C@H](n2cc(C(N)=O)c(Nc3ccc(Cl)cc3)n2)[C@@H](C#N)C1 (single isomer, unassigned) [Example 32-16, 3-[(4-chlorophenyl)amino]-1-[(1S,2S,4R or 1R,2R,4S)-2-cyano-4-ethenyl-4-hydroxycyclohexyl]-1H-pyrazole-4-carboxamide]
6 nM	N#C[C@H]1C[C@@H](N2CCC2)CC[C@@H]1n1cc(C(N)=O)c(Nc2ccc(OC(F)F)cc2)n1 (single isomer, unassigned) [Example 28-103, 1-[(1S,2S,4S or 1R,2R,4R)-4-azetidin-1-yl-2-cyanocyclohexyl]-3-{[4-(difluoromethoxy)phenyl]amino}-1H-pyrazole-4-carboxamide]
15 nM	N#C[C@H]1C[C@H](O)CCC1n1cc(C(N)=O)c(Nc2ccnc(F)c2)n1 (single isomer, unassigned) [Example 25-25, 1-[(1S,2S,4R or 1R,2R,4S)-2-cyano-4-hydroxycyclohexyl]-3-[2-fluoropyridin-4-yl)amino]-1H-pyrazole-4-carboxamide]
0.4 nM	N#C[C@H]1CCCCC1n1cc(C(N)=O)c(Nc2ccc3c(c2)CCS3(=O)=O)n1 (mixture of isomers) [Example 20, 1-[(1S,2S and 1R,2R)-2-Cyanocyclohexyl]-3-[(1,1-dioxido-2,3-dihydro-1-benzothiophen-5-yl)amino]-1H-pyrazole-4-carboxamide]
16 nM	CC(C)CN(CC1CC1)[C@H]1CC[C@@H](n2cc(C(N)=O)c(Nc3ccc(C(F)(F)F)cc3)n2)[C@H](C#N)C1 (single isomer, unassigned) [Example 30-9, l-{(1R,2R,4S or 1S,2S,4R)-2-cyano-4-[(cyclopropylmethyl)(2-methylpropyl)amino]cyclo-hexyl}-3-{[4-(trifluoromethyl)phenyl]amino}-1H-pyrazole-4-carboxamide]
1 nM	N#C[C@H]1C[C@](O)(C2CC2)CC[C@@H]1n1cc(C(N)=O)c(Nc2ccc(Cl)cc2)n1 (single isomer, unassigned) [Example 32-12, 3-[(4-chlorophenyl)aminol-1-[(1S,2S,4S or 1R,2R,4R)-2-cyano-4-cyclopropyl-4-hydroxycyclohexyl]-1H-pyrazole-4-carboxamide]
0.45 nM	N#C[C@H]1CCCCC1n1cc(C(N)=O)c(Nc2ccc3c(c2)C=CS3(=O)=O)n1 (mixture of isomers) [Example 17-63, 1-[(1S,2S and 1R,2R)-2-cyanocyclohexyl]-3-[(1,1-dioxido-1-benzothiophen-5-yl)amino]-1H-pyrazole-4-carboxamide]
3 nM	N#C[C@H]1C[C@H](O)CCC1n1cc(C(N)=O)c(Nc2ccnc(F)c2)n1 (mixture of isomers) [Example 15, 1-[(1S,2S,4R and 1R,2R,4S)-2-Cyano-4-hydroxycyclohexyl]-3-[(2-fluoropyridin-4-yl)amino]-1H-pyrazole-4-carboxamide]
1 nM	N#C[C@H]1C[C@@H](N2CC(O)(C(F)(F)F)C2)CC[C@@H]1n1cc(C(N)=O)c(Nc2ccc(C(F)(F)F)cc2)n1 (single isomer, unassigned) [Example 28-200, 1-{(1S,2S,4S or 1R,2R,4R)-2-cyano-4-[3-hydroxy-3-(trifluoromethyl)azetidin-1-yl]cyclohexyl}-3-{[4-(trifluoromethyl)phenyl]amino}-nvrazole-4-carboxamide]
0.4 nM	N#C[C@H]1C[C@H](N2CCC2)CC[C@@H]1n1cc(C(N)=O)c(Nc2ccc(CC(F)(F)F)cc2)n1 (single isomer, unassigned) [Example 28-53, 1-[(1S,2S,4R or 1R,2R,4S)-4-azetidin-1-yl-2-cyanocyclohexyl]-3-{[4-(2,2,2-trifluoroethyl)phenyl]amino}-1H-pyrazole-4-carboxamide]
2 nM	N#C[C@@H]1CCCC[C@H]1n1cc(C(N)=O)c(Nc2ccc3c(c2)CCS3(=O)=O)n1 (single isomer, unassigned) [Example 45-6, 1-[(1S,2R or 1R,2S)-2-cyanocyclohexyl)-3-[(1,1-dioxido-2,3-dihydro-1-benzothiophen-5-yl)amino]-1H-pyrazole-4-carboxamide]
